Assay results: patent US20100081679A1, “DIAMINOPYRIMIDINES AS FUNGICIDES” (Bayer CropScience AG, priority 2007, published 2010)
Structures can show the parent of a compound that is named as a salt. Where two headings read alike, the source gives them in different places. Marks after values point to notes of the source that are not given here.

Assay: logP determination via retention times, calibrated with unbranched alkan-2-ones
Format: physicochemical
[1] = HPLC on reversed-phase C18, method *: 40° C., 0.1% aqueous formic acid and acetonitrile, linear gradient 10% to 95% acetonitrile
[2] = method *: HPLC reversed-phase C18, 40° C., 0.1% aqueous formic acid and acetonitrile, linear gradient 10% to 95% acetonitrile
[3] = method **: HPLC reversed-phase C 18, 43° C., 0.1% aqueous phosphoric acid and acetonitrile, linear gradient 10% to 95% acetonitrile
[4] = reversed-phase C18 HPLC column, method **: HPLC reversed-phase C 18, 43° C., 0.1% aqueous phosphoric acid and acetonitrile, linear gradient 10% to 95% acetonitrile, read-out: logP

CCC(C)c1ccc(Nc2ncc(Cl)c(NC3CC3)n2)cc1 (racemic) [compound 954]
logP [1]: 2.77*

CCC(C)Oc1cc(Nc2ncc(Cl)c(NC3CC3)n2)ccc1C (racemic) [compound 955]
logP [1]: 2.99*

CC[S+]([O-])c1cccc(Nc2ncc(Br)c(NC3CC3)n2)c1 (racemic) [compound 958]
logP [1]: 1.59*

OC(c1cccc(Nc2ncc(Cl)c(NC3CC3)n2)c1)C(F)(F)F (racemic) [compound 961]
logP [1]: 1.79*

COC(C)c1cccc(Nc2ncc(C(F)(F)F)c(NCC3CC3)n2)c1 (racemic) [compound 962]
logP [1]: 3.29*

CCOC1(Nc2nc(Cl)ncc2Cl)CC1 [2,5-Dichloro-N-(1-ethoxycyclopropyl)pyrimidine-4-amine]
chromatographic logP (pH 2.3, read-out: logP (pH2.3)): 2.09

Clc1ncc(Cl)c(NC2CC2)n1 [2,5-Dichloro-N-cyclopropylpyrimidine-4-amine]
chromatographic logP (pH 2.3, read-out: logP (pH2.3)): 1.79

CC(Nc1nc(Cl)ncc1Cl)C1CC1 (stereo not drawn) [2,5-dichloro-N-(1-cyclopropylethyl)pyrimidine-4-amine]
chromatographic logP (pH 2.3, read-out: logP (pH2.3)): 2.97

Clc1ncc(Cl)c(NCC2CC2)n1 [2,5-dichloro-N-(cyclopropylmethyl)pyrimidine-4-amine]
chromatographic logP (pH 2.3, read-out: logP (pH2.3)): 2.51

O=c1[nH]c(Nc2ccccc2)ncc1Cl [2-Anilino-5-chloropyrimidin-4(3H)-one]
chromatographic logP (pH 2.3, read-out: logP (pH2.3)): 1.56

FC(F)(F)c1cnc(Cl)nc1NCC1CC1 [2-chloro-N-(cyclopropylmethyl)-5-trifluoromethylpyrimidine-4-amine]
chromatographic logP (pH 2.3, read-out: logP (pH2.3)): 3.4

Fc1cnc(Cl)nc1NC1CC1 [2-chloro-N-cyclopropyl-5-fluoropyrimidine-4-amine]
chromatographic logP (pH 2.3, read-out: logP (pH2.3)): 1.42

Clc1ncc(I)c(NC2CC2)n1 [2-chloro-N-cyclopropyl-5-iodopyrimidine-4-amine]
chromatographic logP (pH 2.3, read-out: logP (pH2.3)): 2.19

COc1cnc(Cl)nc1NC1CC1 [2-chloro-N-cyclopropyl-5-methoxypyrimidine-4-amine]
chromatographic logP (pH 2.3, read-out: logP (pH2.3)): 1.38

Cc1cnc(Cl)nc1NC1CC1 [2-chloro-N-cyclopropyl-5-methylpyrimidine-4-amine]
chromatographic logP (pH 2.3, read-out: logP (pH2.3)): 1.28

FC(F)(F)c1cnc(Cl)nc1NC1CC1 [2-chloro-N-cyclopropyl-5-trifluoromethylpyrimidine-4-amine]
chromatographic logP (pH 2.3, read-out: logP (pH2.3)): 2.39

Clc1cnc(Nc2ccccc2)nc1Cl [4,5-Dichloro-N-phenylpyrimidine-2-amine]
chromatographic logP (pH 2.3, read-out: logP (pH2.3)): 3.52

O=C(O)c1ccc(Nc2ncc(Cl)c(NC3CC3)n2)cc1 [4-{[5-chloro-4-(cyclopropylamino)pyrimidin-2-yl]amino}benzoic acid]
chromatographic logP (pH 2.3, read-out: logP (pH2.3)): 1.55

Clc1ncc(Br)c(NCC2CC2)n1 [5-bromo-2-chloro-N-(cyclopropylmethyl)pyrimidine-4-amine]
chromatographic logP (pH 2.3, read-out: logP (pH2.3)): 2.69

Clc1ncc(Br)c(NC2CC2)n1 [5-bromo-2-chloro-N-cyclopropylpyrimidine-4-amine]
chromatographic logP (pH 2.3, read-out: logP (pH2.3)): 1.97

Clc1cnc(Nc2ccccc2)nc1NC1CC1 [Example 2, 5-Chloro-N^4-cyclopropyl-N^2-phenylpyrimidine-2,4-diamine]
chromatographic logP (pH 2.3, read-out: logP (pH2.3)): 1.61
chromatographic logP (reversed-phase C18 HPLC column, method *: HPLC reversed-phase C 18, 40° C., 0.1% aqueous formic acid and acetonitrile, linear gradient 10% to 95% acetonitrile, read-out: logP): 1.61

COc1cc(Nc2ncc(Cl)c(NC3CC3)n2)cc(OC)c1 [Example 3]
logP [2]: 1.91*

COc1cc(Nc2ncc(Cl)c(NC3CC3)n2)cc(OC)c1OC [Example 4]
logP [2]: 1.73*

CC(=O)c1cccc(Nc2ncc(Cl)c(NC3CC3)n2)c1 [Example 5]
logP [3]: 1.84**

CN(C)S(=O)(=O)c1ccc(Nc2ncc(Cl)c(NC3CC3)n2)cc1 [Example 6]
logP [3]: 2.26**

Clc1cnc(Nc2ccccc2)nc1NCC1CC1 [Example 10]
logP [3]: 1.85**

COc1cc(Nc2ncc(Cl)c(NCC3CC3)n2)cc(OC)c1OC [Example 12]
logP [3]: 1.78**

NS(=O)(=O)c1cccc(Nc2ncc(Cl)c(NC3CC3)n2)c1 [Example 15, 3-{[5-Chloro-4-(cyclopropylamino)pyrimidin-2-yl]amino}benzenesulphonamide]
chromatographic logP (pH 2.3, read-out: logP (pH2.3)): 1.37
chromatographic logP [4]: 1.37

NS(=O)(=O)c1cccc(Nc2ncc(Cl)c(NCC3CC3)n2)c1 [Example 16]
logP [3]: 1.51**

NS(=O)(=O)c1cc(Nc2ncc(Cl)c(NCC3CC3)n2)cc(C(F)(F)F)c1 [Example 18]
logP [3]: 2.63**

O=S(=O)(c1cccc(Nc2ncc(Cl)c(NC3CC3)n2)c1)N1CCOCC1 [Example 19]
logP [3]: 2.13**

CCCCNS(=O)(=O)c1ccc(Nc2ncc(Cl)c(NC3CC3)n2)cc1 [Example 22]
logP [3]: 2.6**

CC(=O)NS(=O)(=O)c1ccc(Nc2ncc(Cl)c(NC3CC3)n2)cc1 [Example 24]
logP [3]: 1.64**

CN(C)S(=O)(=O)c1cccc(Nc2ncc(Cl)c(NC3CC3)n2)c1 [Example 28]
logP [3]: 2.04**

Cl.Clc1cnc(Nc2ccccc2)nc1NC1CC1 [Example 29]
logP [3]: 1.75**

Brc1cnc(Nc2ccccc2)nc1NC1CC1 [Example 30]
logP [3]: 1.8**

O=C1CCCN1c1ccc(Nc2ncc(Cl)c(NC3CC3)n2)cc1 [Example 34]
logP [3]: 1.45**

O=C(O)c1ccc(Nc2ncc(Cl)c(NC3CC3)n2)cc1 [Example 35]
logP [3]: 1.55**

COC(=O)c1ccc(Nc2ncc(Cl)c(NC3CC3)n2)cc1 [Example 37]
logP [2]: 2.23*

CC(C)NC(=O)c1ccc(Nc2ncc(Cl)c(NC3CC3)n2)cc1 [Example 43, 4-{[5-Chloro-4-(cyclopropylamino)pyrimidin-2-yl]amino}-N-isopropylbenzamide]
chromatographic logP (pH 2.3, read-out: logP (pH2.3)): 1.73
chromatographic logP [4]: 1.73

CC(=O)c1ccc(Nc2ncc(Cl)c(NC3CC3)n2)cc1.Cl [Example 45]
logP [3]: 1.99**

Cc1ccc(Nc2ncc(Cl)c(NC3CC3)n2)cc1S(=O)(=O)N(C)C [Example 47]
logP [3]: 2.14**

CNS(=O)(=O)Cc1ccc(Nc2ncc(Cl)c(NC3CC3)n2)cc1 [Example 48]
logP [3]: 1.37**

CS(=O)(=O)c1ccc(Nc2ncc(Cl)c(NC3CC3)n2)cc1 [Example 50]
logP [3]: 1.75**

Cc1cnc(Nc2ccccc2)nc1NC1CC1 [Example 51]
logP [2]: 1.5*

CC(C)c1ccc(Nc2ncc(Cl)c(NCC3CC3)n2)cc1 [Example 54]
logP [3]: 2.62**

CC(C)Oc1ccc(Nc2ncc(Cl)c(NCC3CC3)n2)cc1 [Example 55, 5-Chloro-N^4-(cyclopropylmethyl)-N^2-(4-isopropoxyphenyl)pyrimidine-2,4-diamine hydrochloride]
chromatographic logP (pH 2.3, read-out: logP (pH2.3)): 2.11
chromatographic logP [4]: 2.11

O=C1Cc2cc(Nc3ncc(Cl)c(NC4CC4)n3)ccc2N1 [Example 56]
logP [2]: 1.05*

CC(C)(C)C(=O)Cc1ccc(Nc2ncc(Cl)c(NC3CC3)n2)cc1 [Example 59]
logP [2]: 2.3*

C=CCS(=O)(=O)c1ccc(Nc2ncc(Cl)c(NC3CC3)n2)cc1 [Example 61]
logP [2]: 2.18*

CC(=O)N(c1ccc(Nc2ncc(Cl)c(NC3CC3)n2)cc1)C1CC1 [Example 63]
logP [2]: 1.62*

CC1(C(=O)Nc2ccc(Nc3ncc(Cl)c(NC4CC4)n3)cc2)CC1 [Example 64]
logP [2]: 1.66*

CC(C)(CF)C(=O)Nc1ccc(Nc2ncc(Cl)c(NC3CC3)n2)cc1 [Example 67]
logP [2]: 1.74*

FC(F)(F)c1nc2ccc(Nc3ncc(Cl)c(NC4CC4)n3)cc2[nH]1 [Example 68]
logP [2]: 1.55*

CSc1ccc(Nc2ncc(Cl)c(NC3CC3)n2)cc1 [Example 69]
logP [2]: 2.1*

Clc1cnc(Nc2ccccc2)nc1NC1CC1 [Example 70]
logP [2]: 1.28*

Clc1cnc(Nc2ccc3[nH]ccc3c2)nc1NC1CC1 [Example 71]
logP [2]: 1.47*

CC(C)(C)C(=O)Nc1ccc(Nc2ncc(Cl)c(NC3CC3)n2)cc1 [Example 72]
logP [2]: 1.81*

O=C(c1ccc(Nc2ncc(Cl)c(NC3CC3)n2)cc1)C(F)(F)F [Example 73]
logP [2]: 3.62*

CSc1cccc(Nc2ncc(Cl)c(NC3CC3)n2)c1 [Example 74]
logP [2]: 2.21*

Oc1ccc(Nc2ncc(Cl)c(NC3CC3)n2)cc1 [Example 75]
logP [2]: 1.12*

Clc1cnc(Nc2ccccc2)nc1NC1CC1 [Example 76]
logP [2]: 1.84*

CN(C)S(=O)(=O)c1ccc(Nc2ncc(Cl)c(NC3CC3)n2)cc1.Cl [Example 78]
logP [2]: 2.26*

Fc1ccc(Nc2ncc(Cl)c(NC3CC3)n2)cc1 [Example 80]
logP [2]: 1.8*

OCc1cccc(Nc2ncc(Cl)c(NC3CC3)n2)c1 [Example 82]
logP [2]: 1.22*

O=C(Nc1cccc(Nc2ncc(Cl)c(NC3CC3)n2)c1)C1CC1 [Example 84]
logP [2]: 1.62*

CC(C)C(=O)Nc1cccc(Nc2ncc(Cl)c(NC3CC3)n2)c1 [Example 86]
logP [2]: 1.63*

Cc1ccc(S(=O)(=O)O)cc1.O=C1CCCN1c1ccc(Nc2ncc(Cl)c(NC3CC3)n2)cc1 [Example 89]
logP [2]: 1.44*

CC(C)(C)C(=O)Nc1cccc(Nc2ncc(Cl)c(NC3CC3)n2)c1 [Example 91]
logP [2]: 1.98*

FC(F)(F)c1cnc(Nc2ccccc2)nc1NC1CC1 [Example 93]
logP [3]: 2.62**

O=C(NCc1ccc(Nc2ncc(Cl)c(NC3CC3)n2)cc1)OCc1ccccc1 [Example 95]
logP [2]: 2.2*

O=C1CCCN1c1ccc(Nc2ncc(Br)c(NC3CC3)n2)cc1 [Example 97]
logP [2]: 1.49*

O=C(Nc1cccc(Nc2ncc(Cl)c(NC3CC3)n2)c1)c1ccco1 [Example 99]
logP [1]: 1.62*

CC(C)(C)OC(=O)Nc1ccc(Nc2ncc(Cl)c(NC3CC3)n2)cc1 [Example 100]
logP [1]: 2.12*

CC(=O)c1cc(Nc2ncc(Cl)c(NC3CC3)n2)ccc1O [Example 101]
logP [1]: 1.65*

CN(C)S(=O)(=O)Oc1ccc(Nc2ncc(Cl)c(NC3CC3)n2)cc1 [Example 102]
logP [1]: 2.08*

FC(F)Sc1ccc(Nc2ncc(Br)c(NC3CC3)n2)cc1 [Example 104]
logP [1]: 2.99*
